For one compound, mortality results are on record in patent US20130137682A1, “PEST CONTROL COMPOSITION” (SUMITOMO CHEMICAL COMPANY, LIMITED, priority 2010, published 2013).

This experiment deals with Haemaphysalis longicornis. Kind of experiment: Test Example 3: insecticidal test on Haemaphysalis longicornis by treating glass surface. Type of experiment: in vivo. To be noted: 48 h, read-out: Mortality Rate (%). Here is the method: Insecticidal Test on Haemaphysalis longicornis by Treating Glass Surface
Acetone solutions were each prepared for the present hydrazide compounds and the present neonicotinoid compounds. To inner walls of a glass screw tube and lid (NO. 5, manufactured by Maruemu Corporation), 0.2 mL of the acetone solution was uniformly applied. […] The lid is closed tightly, and the number of dead ticks is examined after 2 days.

As to `CCN(Cc1ccc(Cl)nc1)/C(=C/[N+](=O)[O-])NC` [Nitenpyram, nitenpyram], the mortality (commonly the percentage killed) at 500 mg/m2 stood at 20%.
